33 compounds from patent US9452980B2, “Substituted benzamides” (Hoffmann-La Roche Inc., priority 2009, dated 2016) can be followed below.

One experiment concerns the target mouse TAAR1 (Mus musculus (Mouse), UniProt Q923Y8). As to the kind of experiment: Radioligand binding assay on mouse TAAR1. The gist of the method:
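Membranes were from HEK293 cells stably expressing mouse TAAR1. Compounds from 10 pM to 10 μM, in duplicate, competed with [3H]-(S)-4-[(ethyl-phenyl-amino)-methyl]-4,5-dihydro-oxazol-2-ylamine for 1 h at 4 °C. Nonspecific binding was defined with 10 μM unlabelled ligand, and bound radioactivity was read by filtration and scintillation.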

The target of a further experiment is rat TAAR1 (Rattus norvegicus (Rat), UniProt Q923Y9). As to the kind of experiment: Radioligand binding assay on rat TAAR1. In a few lines: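 Membranes from HEK293 cells stably expressing rat TAAR1, with Kd checked per batch by saturation. Competition with ³H-(S)-4-[(ethyl-phenyl-amino)-methyl]-4,5-dihydro-oxazol-2-ylamine, compounds 10 pM–10 μM in duplicate, 1 hr at 4 °C. Filtration then scintillation counting; nonspecific binding defined with 10 μM unlabeled ligand.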

[1] abbreviates: mouse TAAR1, HEK-293 membranes, first value of cell mouse/rat, read-out: Ki (μM) mouse.
Where [2] appears, read: rat TAAR1, HEK-293 membranes, second value of cell mouse/rat, read-out: Ki (μM) rat.

Structures can show the parent of a compound that is named as a salt. Where two headings read alike, the source gives them in different places.

As usually defined, the Ki is a dissociation constant, usually derived from enzyme kinetics or from competition with a known ligand.

Chain of mouse TAAR1 (Q923Y8 whole entry): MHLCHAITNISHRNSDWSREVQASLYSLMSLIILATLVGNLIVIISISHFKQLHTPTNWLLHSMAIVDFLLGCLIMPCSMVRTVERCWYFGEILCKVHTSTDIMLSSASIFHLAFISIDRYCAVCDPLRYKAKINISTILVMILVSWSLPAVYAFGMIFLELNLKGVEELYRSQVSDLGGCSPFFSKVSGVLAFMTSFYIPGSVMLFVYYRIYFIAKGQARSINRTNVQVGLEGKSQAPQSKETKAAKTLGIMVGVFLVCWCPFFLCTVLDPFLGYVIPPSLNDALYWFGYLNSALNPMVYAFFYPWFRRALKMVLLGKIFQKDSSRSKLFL
Chain of rat TAAR1 (Q923Y9 whole entry): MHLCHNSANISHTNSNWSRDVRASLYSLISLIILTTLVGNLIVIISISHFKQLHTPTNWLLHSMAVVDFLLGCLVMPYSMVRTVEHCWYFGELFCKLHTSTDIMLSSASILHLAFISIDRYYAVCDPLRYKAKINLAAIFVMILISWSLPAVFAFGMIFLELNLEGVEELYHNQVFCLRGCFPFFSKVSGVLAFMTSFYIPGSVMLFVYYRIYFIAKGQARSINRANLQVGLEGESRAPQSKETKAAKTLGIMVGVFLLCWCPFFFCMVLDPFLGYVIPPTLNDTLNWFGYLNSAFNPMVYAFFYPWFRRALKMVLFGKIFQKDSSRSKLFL

On to `O=C(Nc1ccc(C2CCNC2)cc1)OCCc1ccc(C(F)(F)F)cc1` (racemic) [Example 122, (RS)-(4-Pyrrolidin-3-yl-phenyl)-carbamic acid 2-(4-trifluoromethyl-phenyl)-ethyl ester], for which the Ki on mouse TAAR1 (setting [1]) turned out to be 0.0003 µM; at rat TAAR1 (setting [2]), 0.0011 µM.

Turning to `O=C(Nc1ccc(C2CCNC2)cc1)c1ccc(Br)cn1` (racemic) [Example 87, (RS)-5-Bromo-pyridine-2-carboxylic acid (4-pyrrolidin-3-yl-phenyl)-amide hydrochloride], the Ki came to 0.0051 µM at mouse TAAR1 (setting [1]) and 0.017 µM on rat TAAR1 (setting [2]).

Turning to `Cc1nc(C(=O)Nc2ccc(C3CNCCO3)cc2)cs1` (racemic) [Example 217, (RS)-2-Methyl-N-(4-(morpholin-2-yl)phenyl)thiazole-4-carboxamide hydrochloride], the values for the Ki at mouse TAAR1 (setting [1]) and at rat TAAR1 (setting [2]) were 0.335 µM and 0.0941 µM, respectively.

Take `O=C(Nc1ccc(CCC2CCNC2)cc1)c1ncccc1F` (racemic) [Example 132, (RS)-3-Fluoro-pyridine-2-carboxylic acid [4-(2-pyrrolidin-3-yl-ethyl)-phenyl]-amide hydrochloride]: the figures for the inhibition constant (Ki) at mouse TAAR1 (setting [1]) and at rat TAAR1 (setting [2]) were 9.99 µM and 0.141 µM, respectively.

Take `CCc1cnc(C(=O)Nc2ccc([C@@H]3CCCNC3)cc2)cn1` [Example 274, (S)-5-Ethyl-N-(4-(piperidin-3-yl)phenyl)pyrazine-2-carboxamide hydrochloride]: the Ki worked out at 2.51 µM at mouse TAAR1 (setting [1]) and 0.0174 µM at rat TAAR1 (setting [2]).

With `O=C(Nc1ccc(CCC2CCCN2)cc1)c1ccc(Cl)cc1` (racemic) [Example 142, (RS)-4-Chloro-N-[4-(2-pyrrolidin-2-yl-ethyl)-phenyl]-benzamide hydrochloride], the Ki at mouse TAAR1 (setting [1]) is 0.0126 µM; on rat TAAR1 (setting [2]) it was 0.0004 µM.

For `O=C(Nc1ccc(C2CNCCO2)cc1)c1ccnc(Cl)c1` (racemic) [Example 218, (RS)-2-Chloro-N-(4-(morpholin-2-yl)phenyl)isonicotinamide hydrochloride], the Ki at mouse TAAR1 (setting [1]) amounted to 0.0872 µM; on rat TAAR1 (setting [2]) it was 0.0087 µM.

In the case of `O=C(Nc1ccc(C2CCNC2)cc1)OCCc1cc(F)ccc1F` (racemic) [Example 124, (RS)-(4-Pyrrolidin-3-yl-phenyl)-carbamic acid 2-(2,5-difluoro-phenyl)-ethyl ester], the Ki at mouse TAAR1 (setting [1]) was 0.0013 µM; at rat TAAR1 (setting [2]), 0.0036 µM.

In the case of `O=C(Nc1ccc(CCC2CCCN2)cc1)c1cnc(Cl)cn1` (racemic) [Example 164, (RS)-5-Chloro-N-(4-(2-(pyrrolidin-2-yl)ethyl)phenyl)pyrazine-2-carboxamide hydrochloride], the values for the Ki at mouse TAAR1 (setting [1]) and on rat TAAR1 (setting [2]) were 0.0871 µM and 0.0121 µM, respectively.

`O=C(Nc1ccc(C2CCNC2)cc1)Oc1ccc(Cl)cc1` (racemic) [Example 23, (RS)-(4-Pyrrolidin-3-yl-phenyl)-carbamic acid 4-chloro-phenyl ester hydrochloride]: the inhibitory constant (Ki) worked out at 0.0022 µM on mouse TAAR1 and 0.0025 µM on rat TAAR1.

Turning to `O=C(Nc1ccc([C@H]2CNCCO2)cc1)c1cc(Cl)nc(Cl)c1` [Example 271, (S)-2,6-Dichloro-N-(4-(morpholin-2-yl)phenyl)isonicotinamide hydrochloride], the figures for the Ki at mouse TAAR1 (read-out: Ki (μM) mouse) and on rat TAAR1 (read-out: Ki (μM) rat) were 0.0067 µM and 0.004 µM, respectively.

For the compound `CCCc1ccc(C(=O)Nc2ccc([C@@H]3CCCNC3)cc2)cn1` [Example 289, (S)—N-(4-(Piperidin-3-yl)phenyl)-6-propylnicotinamide], the inhibitory constant (Ki) at mouse TAAR1 (setting [1]) came to 0.143 µM; at rat TAAR1 (read-out: Ki (μM) rat), 0.0027 µM.

Regarding `CC(OC(=O)Nc1ccc(C2CCNC2)cc1)c1ccc(Cl)cc1` (racemic) [Example 127, (RS)-(4-Pyrrolidin-3-yl-phenyl)-carbamic acid (RS)-1-(4-chloro-phenyl)-ethyl ester], the inhibition constant Ki at mouse TAAR1 (setting [1]) came out at 0.0006 µM; at rat TAAR1 (setting [2]), 0.002 µM.

As for `COc1ccc(C(=O)Nc2ccc(C3CCNC3)cc2)nc1` (racemic) [Example 94, (RS)-5-Methoxy-pyridine-2-carboxylic acid (4-pyrrolidin-3-yl-phenyl)-amide hydrochloride], the Ki worked out at 0.0601 µM at mouse TAAR1 (read-out: Ki (μM) mouse) and 0.379 µM on rat TAAR1 (setting [2]).

`COc1cc(C(=O)Nc2ccc([C@@H]3CCCNC3)cc2)ccc1Cl` [Example 201, (S)-4-Chloro-3-methoxy-N-(4-(piperidin-3-yl)phenyl)benzamide hydrochloride]: the inhibition constant (Ki) at mouse TAAR1 (setting [1]) came to 0.113 µM; on rat TAAR1 (setting [2]), 0.0022 µM.

As to `O=C(Nc1ccc(C2CCNC2)cc1)c1cc2ccccc2c(Cl)n1` (racemic) [Example 108, (RS)-1-Chloro-isoquinoline-3-carboxylic acid (4-pyrrolidin-3-yl-phenyl)-amide hydrochloride], the Ki at mouse TAAR1 (setting [1]) stood at 0.0046 µM; at rat TAAR1 (setting [2]), 0.0081 µM.

With `O=C(Nc1ccc(C2CCNC2)cc1)Nc1ccc(Cl)cc1Cl` (racemic) [Example 7, (RS)-1-(2,4-Dichloro-phenyl)-3-(4-pyrrolidin-3-yl-phenyl)-urea hydrochloride], the Ki on mouse TAAR1 (setting [1]) is 0.0028 µM; at rat TAAR1 (setting [2]) it was 0.0036 µM.

`CC(CO)(CCl)COc1ccc(C(=O)Nc2ccc(C3CNCCO3)cc2)cc1` (racemic) [Example 220, (RS)-4-(2-Chloromethyl-3-hydroxy-2-methyl-propoxy)-N-(4-morpholin-2-yl-phenyl)-benzamide]: the Ki on mouse TAAR1 (setting [1]) turned out to be 0.0435 µM; on rat TAAR1 (setting [2]), 0.0024 µM.

In the case of `O=C(Nc1ccc([C@@H]2CCCNC2)cc1)c1cnc(Br)cn1` [Example 251, (S)-5-Bromo-N-(4-(piperidin-3-yl)phenyl)pyrazine-2-carboxamide 2,2,2-trifluoroacetate], the inhibitory constant (Ki) at mouse TAAR1 (setting [1]) worked out at 0.48 µM; at rat TAAR1 (read-out: Ki (μM) rat), 0.0054 µM.

Take `O=C(Nc1ccc([C@@H]2CCCNC2)cc1)c1cc(Cl)nc(Cl)c1` [Example 281, (S)-2,6-Dichloro-N-(4-(piperidin-3-yl)phenyl)isonicotinamide hydrochloride]: the Ki turned out to be 0.0128 µM at mouse TAAR1 (setting [1]) and 0.0014 µM on rat TAAR1 (setting [2]).

On to `O=C(Nc1ccc(Cl)cc1)Nc1ccc(C2CNCCO2)cc1` (racemic) [Example 292, (RS)-1-(4-Chlorophenyl)-3-(4-(morpholin-2-yl)phenyl)urea hydrochloride], for which the Ki on mouse TAAR1 (setting [1]) and at rat TAAR1 (setting [2]) was 0.001 µM each time.

In the case of `O=C(COc1ccc(Cl)cc1)Nc1ccc([C@@H]2CCCNC2)cc1` [Example 235, (S)-2-(4-Chlorophenoxy)-N-(4-(piperidin-3-yl)phenyl)acetamide hydrochloride], the Ki on mouse TAAR1 (read-out: Ki (μM) mouse) amounted to 0.0334 µM; at rat TAAR1 (setting [2]) it was 0.0006 µM.

In the case of `O=C(Nc1ccc([C@H]2CCCNC2)cc1)c1cccc(Cl)c1` [Example 151, (R)-3-Chloro-N-(4-(piperidin-3-yl)phenyl)benzamide hydrochloride], the results for the inhibition constant (Ki) at mouse TAAR1 (read-out: Ki (μM) mouse) and on rat TAAR1 (setting [2]) were 0.011 µM and 0.0008 µM, respectively.

On to `O=C(Nc1ccc([C@@H]2CCCNC2)cc1)OC1Cc2ccccc2C1` [Example 258, (S)-2,3-Dihydro-1H-inden-2-yl 4-(piperidin-3-yl)phenylcarbamate 2,2,2-trifluoroacetate], for which the inhibitory constant (Ki) on mouse TAAR1 (read-out: Ki (μM) mouse) was determined as 0.0225 µM; at rat TAAR1 (setting [2]), 0.0062 µM.

As to `O=C(Nc1ccc(C2CCNC2)cc1)OCc1ccc(F)cc1` (racemic) [Example 47, (RS)-(4-Pyrrolidin-3-yl-phenyl)-carbamic acid 4-fluoro-benzyl ester hydrochloride], the values for the inhibition constant Ki at mouse TAAR1 (setting [1]) and on rat TAAR1 (setting [2]) were 0.0019 µM and 0.0048 µM, respectively.

Turning to `O=C(Nc1ccc(CCC2CCCCN2)cc1)c1ccc(Cl)cn1` (racemic) [Example 171, (RS)-5-Chloro-N-(4-(2-(piperidin-2-yl)ethyl)phenyl)picolinamide hydrochloride], the inhibition constant (Ki) on mouse TAAR1 (setting [1]) stood at 0.198 µM; at rat TAAR1 (setting [2]) it was 0.0101 µM.

As for `Cc1ccc(C(=O)Nc2ccc([C@@H]3CNCCO3)cc2)cc1` [Example 195, (R)-4-Methyl-N-(4-(morpholin-2-yl)phenyl)benzamide hydrochloride], the Ki at mouse TAAR1 (setting [1]) was determined as 0.0135 µM; on rat TAAR1 (setting [2]), 0.0022 µM.

With `O=C(CCc1ccc(Cl)cc1)Nc1ccc(C2CCCNC2)cc1` (racemic) [Example 101, (RS)-3-(4-Chloro-phenyl)-N-(4-piperidin-3-yl-phenyl)-propionamide hydrochloride], the results for the Ki on mouse TAAR1 (setting [1]) and at rat TAAR1 (setting [2]) were 0.002 µM and 0.0263 µM, respectively.

For the compound `O=C(Nc1ccc([C@H]2CCCNC2)cc1)c1ccc(OCC(F)(F)F)nc1` [Example 223, (R)—N-(4-(Piperidin-3-yl)phenyl)-6-(2,2,2-trifluoroethoxy)nicotinamide hydrochloride], the Ki amounted to 0.0016 µM at mouse TAAR1 (setting [1]) and 0.0018 µM at rat TAAR1 (read-out: Ki (μM) rat).

Take `CCOc1ccc(C(=O)Nc2ccc(CCC3CCCN3)cc2)cc1` (racemic) [Example 158, (RS)-4-Ethoxy-N-[4-(2-pyrrolidin-2-yl-ethyl)-phenyl]-benzamide hydrochloride]: the inhibition constant Ki at mouse TAAR1 (setting [1]) worked out at 0.0326 µM; on rat TAAR1 (setting [2]) it was 0.0014 µM.

In the case of `COc1ccc(C(=O)Nc2ccc(C3CCNC3)cc2)c(F)c1` (racemic) [Example 88, (RS)-2-Fluoro-4-methoxy-N-(4-pyrrolidin-3-yl-phenyl)-benzamide hydrochloride], the values for the inhibition constant Ki at mouse TAAR1 (setting [1]) and at rat TAAR1 (setting [2]) were 0.0052 µM and 0.102 µM, respectively.

As to `O=C(Nc1ccc(C2CCNC2)cc1)Nc1ccc(Cl)cn1` (racemic) [Example 44, (RS)-1-(5-Chloro-pyridin-2-yl)-3-(4-pyrrolidin-3-yl-phenyl)-urea hydrochloride], the values for the inhibition constant (Ki) at mouse TAAR1 (setting [1]) and at rat TAAR1 (setting [2]) were 0.0013 µM and 0.0022 µM, respectively.

On to `CCCCc1ccc(NC(=O)Nc2ccc(C3CCNC3)cc2)c(C)c1` (racemic) [Example 1, (RS)-1-(4-Butyl-2-methyl-phenyl)-3-(4-pyrrolidin-3-yl-phenyl)-urea; hydrochloride], for which the Ki at mouse TAAR1 (setting [1]) was 0.0056 µM; at rat TAAR1 (setting [2]), 0.0072 µM.
